Source: US20240246981A1, “[…] DERIVATIVES AS INHIBITORS OF […]-PEPTIDE CYCLOTRANSFERASE AND […]-PEPTIDE CYCLOTRANSFERASE LIKE PROTEIN” (Boehringer Ingelheim International GmbH, priority 2022, published 2024)
Read-outs that look alike come from different tables or passages of the source.

What was measured:
QPCTL = QPCTL (Homo sapiens (Human), UniProt Q9NXS2); assay: Assay A: biochemical QPCTL activity assay (MALDI-TOF MS); conditions: read-out: Inhibition of QPCTL: IC50
How it was run: (§1)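 Compounds preincubated 10 min at 24 °C with enzyme in 20 mM Tris pH 7.5, 0.1 mM TCEP, 0.01% BSA, 0.001% Tween20; CD47 peptide substrate (final 10 μM for QPCTL, 20 μM for QPCT) reacted 40 min at 24 °C. Pyroglutamate product read by MALDI-TOF MS versus internal standard, normalized to controls; four-parameter fit.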

QPCT = QPCT (Homo sapiens (Human), UniProt Q16769); assay: Assay A: biochemical QPCT activity assay (MALDI-TOF MS); conditions: read-out: Inhibition of QPCT: IC50
Chain of QPCT (Q16769 29-361): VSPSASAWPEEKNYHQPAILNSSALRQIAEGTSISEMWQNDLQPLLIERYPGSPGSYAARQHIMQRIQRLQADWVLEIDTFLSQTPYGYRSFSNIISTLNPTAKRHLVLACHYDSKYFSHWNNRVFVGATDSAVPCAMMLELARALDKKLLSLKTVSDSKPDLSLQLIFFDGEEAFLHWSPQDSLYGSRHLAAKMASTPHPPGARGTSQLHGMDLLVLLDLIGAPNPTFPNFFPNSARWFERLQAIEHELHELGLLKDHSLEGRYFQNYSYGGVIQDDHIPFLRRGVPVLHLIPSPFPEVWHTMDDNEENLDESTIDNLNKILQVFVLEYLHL
How it was run: as §1

[1] = tested on: SIRPα signalling induced by Raji cells; assay: Assay B: SIRPα signalling assay using Raji cells; assay type: cell-based, human
How it was run: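 SIRPα signalling induced by Raji cells in a PathHunter reporter line, read as β-galactosidase complementation luminescence. Detection reagent 1 added for 15 min, then reagent 2 for 60 min in the dark, both at room temperature.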

[2] = tested on: SIRPα signalling induced by A549 cells; assay: Assay B: SIRPα signalling assay using A549 cells; assay type: cell-based, human
How it was run: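 5000 Raji or A549 cells were cultured 48 h at 37 °C with serially diluted compound (DMSO), then 15000 Jurkat PathHunter SIRPα reporter cells were added for 5 h. Beta-galactosidase luminescence was developed at RT, and IC50 obtained by 4-parameter sigmoidal fit.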

Caco-2 cells = assay: Assay C: permeability in CACO-2 cells; assay type: in vitro ADME; conditions: for Permeability A-B: Caco-2, apical to basolateral; for efflux ratio: Caco-2
How it was run: (§2)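 Compound in transport solution applied to apical or basolateral donor side for A-B or B-A permeability, 3 filter replicates. Donor sampled at start and end, receiver at intervals up to 2 hours with volume replaced; concentrations by HPLC-MS/MS or scintillation counting.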

[3] = Assay C: permeability in CACO-2 cells; assay type: in vitro ADME; conditions: human, pH 7.2; for Papp A→B / efflux ratio: compounds of the invention, Table 7
How it was run: as §2

[4] = biological target: glutamine acyl cyclase isoenzyme (Homo sapiens (Human), UniProt Q9NXS2); conditions: given in CN 114874186; cited from earlier work
Chain of glutamine acyl cyclase isoenzyme (Q9NXS2 whole entry): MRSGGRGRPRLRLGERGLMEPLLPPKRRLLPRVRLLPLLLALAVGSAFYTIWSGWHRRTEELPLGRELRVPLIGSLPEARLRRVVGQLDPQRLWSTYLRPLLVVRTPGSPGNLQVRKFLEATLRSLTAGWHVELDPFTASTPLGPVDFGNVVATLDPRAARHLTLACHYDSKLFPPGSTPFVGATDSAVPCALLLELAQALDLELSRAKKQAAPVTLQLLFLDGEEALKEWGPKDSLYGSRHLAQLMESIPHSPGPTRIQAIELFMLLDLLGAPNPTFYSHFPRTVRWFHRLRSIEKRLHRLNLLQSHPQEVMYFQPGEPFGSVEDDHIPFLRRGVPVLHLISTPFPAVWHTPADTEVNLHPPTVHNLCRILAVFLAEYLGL

[5] = biological target: human glutaminyl cyclase (hQC) (Homo sapiens (Human), UniProt Q16769); conditions: J-S, NCB 2015 supplementary information; read-out: IC50 on isolated hQC; cited from earlier work
Chain of human glutaminyl cyclase (hQC) (Q16769 29-361): as the sequence (Q16769 29-361) above

[6] = compounds of the invention, Table 2
[7] = compounds of the invention, Table 7
[8] = Homo sapiens, compounds of the invention, Table 4, read-out: Inhibition of SIRα signalling induced by Raji cells: IC50
[9] = Homo sapiens, prior art compounds, Table 5, read-out: Inhibition of SIRPα signalling induced by Raji cells: IC50
[10] = Homo sapiens, compounds of the invention, Table 4, read-out: Inhibition of SIRα signalling induced by A549 cells: IC50
[11] = Homo sapiens, prior art compounds, Table 5, read-out: Inhibition of SIRPα signalling induced by A549 cells: IC50
[12] = prior art compounds, Table 5, read-out: Inhibition of SIRPα signalling induced by Raji cells: IC50
[13] = prior art compounds, Table 5, read-out: Inhibition of SIRPα signalling induced by A549 cells: IC50

Chain of QPCTL (Q9NXS2 whole entry): as the sequence (Q9NXS2 whole entry) above

SMILES | IC50 (QPCTL; [6]) | IC50 (QPCT; [6]) | IC50 [1, 8] | IC50 [1, 9] | IC50 [2, 10] | IC50 [2, 11] | Papp A→B ([3]; Caco-2, apical to basolateral) | efflux ratio ([3]; Caco-2) | Permeability A-B (Caco-2 cells; prior art compounds, Table 8) | efflux ratio (Caco-2 cells; prior art compounds, Table 8) | IC50 (QPCTL; prior art compounds, Table 3) | IC50 (QPCT; prior art compounds, Table 3) | IC50 [1, 12] | IC50 [2, 13] | other results
CNC(=O)c1cncc(-c2cccc(C#N)c2N2CCC(c3nncn3C)CC2)c1 [Example 80] | 2 nM | 11 nM |  |  |  |  |  |  |  |  |  |  |  |  | IC50 ([1]; compounds of the invention, Table 4, read-out: Inhibition of SIRα signalling induced by Raji cells: IC50): 336 nM; IC50 ([2]; compounds of the invention, Table 4, read-out: Inhibition of SIRα signalling induced by A549 cells: IC50): 176 nM; Permeability A-B (Caco-2 cells; [7]): 0.2 10^−6 cm/s; efflux ratio (Caco-2 cells; [7]): 37.8
Cn1cnnc1C1CCN(S(=O)(=O)c2cccc(Nc3ccc(OCc4ccccc4)nc3)c2)CC1 [compound 23, reference compound] |  |  |  | > 10000 nM |  | > 10000 nM |  |  |  |  | 4770 nM | 1840 nM |  |  | Papp A→B at 2 h ([3]; Caco-2, apical to basolateral, prior art compounds, Table 8): 3.5 ×10⁻⁶ cm/s; efflux ratio at 2 h ([3]; Caco-2, prior art compounds, Table 8): 17.6; IC50 [4]: 11.3 nM
Cn1cnnc1C1CCN(c2c(C#N)cccc2-c2cncc(-n3cccn3)c2)CC1 [compound 6, reference compound] | 1 nM | 7 nM | 220 nM | 9 nM | 26 nM | 14 nM | 3.9 ×10⁻⁶ cm/s | 16.9 | 0.2 10^−6 cm/s | 65.0 | 1 nM |  |  |  | 

Now from value to compound, other results behind:

IC50 (QPCTL; [6]) | IC50 (QPCT; [6]) | IC50 [1, 8] | IC50 [1, 9] | IC50 [2, 10] | IC50 [2, 11] | Papp A→B ([3]; Caco-2, apical to basolateral) | efflux ratio ([3]; Caco-2) | Permeability A-B (Caco-2 cells; prior art compounds, Table 8) | efflux ratio (Caco-2 cells; prior art compounds, Table 8) | IC50 (QPCTL; prior art compounds, Table 3) | IC50 (QPCT; prior art compounds, Table 3) | IC50 [1, 12] | IC50 [2, 13] | SMILES | other results
11 nM | 51 nM | 629 nM | 2740 nM | 290 nM | 1400 nM | 0.6 ×10⁻⁶ cm/s | 41.8 | 93 10^−6 cm/s | 0.8 |  |  |  |  | COCCOc1ncc(-c2cccc(C#N)c2N2CCC(c3nncn3C)CC2)cn1 [compound 3, reference compound] | 
 |  |  |  |  |  |  |  | 73 10^−6 cm/s | 1.0 | 13 nM | 260 nM | 2200 nM | 259 nM | Nc1nnc(C2CCN(c3ncccc3-c3ccc(F)nc3)CC2)s1 [compound 1095, reference compound] | 
 |  |  |  |  |  |  |  | 4.2 10^−6 cm/s |  |  | 176 nM | 2970 nM | 868 nM | Cn1cnnc1C1CCN(c2ncccc2-c2cccnc2)CC1 [SEN180, reference compound] | IC50 [5]: 170 nM
